Assay type in all cases: functional, cell-based
Test [1] relates to HCT-116. Kind of test: Antiproliferative activity against human HCT116 cells assessed as cell growth inhibition measured after 96 hrs. The conditions noted are these: HCT-116, 96 h.
Test [2] deals with A549. Kind of test: Antiproliferative activity against human A549 cells assessed as cell viability by WST-1 assay. A general note: Tetrazolium dyes change colour on reduction, which living cells bring about.
Test [3] relates to MV4-11. Nature of the test: Antiproliferative activity against human MV4-11 cells assessed as cell viability by WST-1 assay.
Test [4] has as its system MG-63. Kind of test: Antiproliferative activity against human MG-63 cells assessed as cell viability by WST-1 assay.
The test system of test [5] is NCI-H23. Nature of the test: Antiproliferative activity against human NCI-H23 cells assessed as cell viability by WST-1 assay.
The subject of test [6] is MDA-MB-231. Nature of the test: Antiproliferative activity against human MDA-MB-231 cells assessed as cell viability by WST-1 assay.
In test [7] the test system is MDA-MB-468. Kind of test: Antiproliferative activity against human MDA-MB-468 cells assessed as cell viability by WST-1 assay.
In test [8] the test system is HeLa. Nature of the test: Antiproliferative activity against human HeLa cells assessed as cell growth inhibition measured after 72 hrs by MTT assay. The settings on record: Homo sapiens, HeLa, 72 h.
Test [9] deals with Ca-Ski. Nature of the test: Antiproliferative activity against human Ca-Ski cells assessed as cell growth inhibition measured after 72 hrs by MTT assay.
In test [10] the test system is HeLa. Kind of test: Antiproliferative activity against human HeLa cells assessed as cell growth inhibition measured after 24 hrs by MTT assay.
For test [11], the system named is THP-1. Nature of the test: Antiproliferative activity against human THP-1 cells assessed as cell growth inhibition measured after 24 hrs by MTT assay. The conditions noted are these: THP-1, 24 h.
For test [12], the system named is HepG2. Kind of test: Antiproliferative activity against human HepG2 cells assessed as cell growth inhibition measured after 24 hrs by MTT assay. The settings on record: HepG2, 24 h.
In test [13] the test system is K562. Kind of test: Antiproliferative activity against human K562 cells assessed as cell growth inhibition measured after 24 hrs by MTT assay. The settings on record: K562, 24 h.
The subject of test [14] is GCIY. Kind of test: Antiproliferative activity against human GCIY cells assessed as cell growth inhibition measured after 72 hrs.
Test [15] can be described thus: Antiproliferative activity against human SH-10-TC cells assessed as cell growth inhibition measured after 72 hrs.
Test [16] has as its system HCT-116. Kind of test: Antiproliferative activity against human HCT-116 cells assessed as cell growth inhibition measured after 72 hrs. The conditions noted are these: HCT-116, 72 h.
Test [17] deals with DLD-1. Nature of the test: Antiproliferative activity against human DLD-1 cells assessed as cell growth inhibition measured after 72 hrs. The conditions noted are these: DLD-1, 72 h.
Test [18] concerns A549. Kind of test: Antiproliferative activity against human A549 cells assessed as cell growth inhibition measured after 72 hrs. The conditions noted are these: A549, 72 h.
Test [19] has as its system ACHN. Kind of test: Antiproliferative activity against human ACHN cells assessed as cell growth inhibition measured after 72 hrs.
Test [20] concerns Huh-7. Nature of the test: Antiproliferative activity against human Huh-7 cells assessed as cell growth inhibition measured after 72 hrs. The settings on record: Huh-7, 72 h.
Test [21] in a line: Antiproliferative activity against human OVK18 cells assessed as cell growth inhibition measured after 72 hrs. The conditions noted are these: OVK18, 72 h.
Test [22] deals with MCF7. Kind of test: Antiproliferative activity against human MCF7 cells assessed as cell growth inhibition measured after 72 hrs. The conditions noted are these: MCF7, 72 h.
The subject of test [23] is A-431. Kind of test: Antiproliferative activity against human A-431 cells assessed as cell growth inhibition measured after 72 hrs. The settings on record: A-431, 72 h.
Test [24] relates to HuCCT-1. Kind of test: Antiproliferative activity against human HuCCT-1 cells assessed as cell growth inhibition measured after 72 hrs. The conditions noted are these: HuCCT-1, 72 h.
Test [25] deals with 8505C. Nature of the test: Antiproliferative activity against human 8505C cells assessed as cell growth inhibition measured after 72 hrs.
For test [26], the system named is G-361. Nature of the test: Antiproliferative activity against human G-361 cells assessed as cell growth inhibition measured after 72 hrs. The conditions noted are these: G-361, 72 h.
Test [27] concerns PC-3. Kind of test: Antiproliferative activity against human PC-3 cells assessed as cell growth inhibition measured after 72 hrs. The conditions noted are these: PC-3, 72 h.
Test [28] in a line: Antiproliferative activity against human PK-1 cells assessed as cell growth inhibition measured after 72 hrs. The conditions noted are these: PK-1, 72 h.

The structures appear in SMILES notation.

Usually IC50 stands for the midpoint of a concentration-inhibition curve. For `COc1ccc(/C=C/C(=O)/C=C/c2ccc(OC)c(OC)c2)cc1OC`, the IC50 in [1] is 1500 nM.

As for `COc1cc(/C=C2\CN(C(C)=O)C/C(=C\c3cc(OC)c(OC)c(OC)c3)C2=O)cc(OC)c1OC`, the IC50 in [2], in test [3], in [4], in test [5], in test [6] and in test [7] was 390 nM throughout.

Broadly, the EC50 is the midpoint of the concentration-response curve. `O=C(/C=C/c1cccc(F)c1)/C=C/c1cccc(F)c1`: the concentration giving a half-maximal response (EC50) in test [8] and in test [9] was 1030 nM each time.

For `O=C1/C(=C/c2cccc(/N=C/c3cccc(O)c3O)c2)CCC/C1=C\c1cccc(/N=C/c2cccc(O)c2O)c1`, the IC50 in test [10], in [11], in test [12] and in test [13] was < 5000 nM in each case.

As for `O=C1/C(=C/c2cccc(/N=C/c3ccc(O)cc3O)c2)CCC/C1=C\c1cccc(/N=C/c2ccc(O)cc2O)c1`, the IC50 in [10], in test [11], in test [12] and in test [13] was < 5000 nM throughout.

Turning to `CCOC(C)COc1c(OC)cc(/C=C/C(=O)/C=C/c2cc(OC)c(OC)c(OC)c2)cc1OC` (stereo not drawn), the IC50 in [14], in test [15], in test [16], in test [17], in test [18] and in [19] was 1000 nM throughout. Besides, the IC50 in [20], in test [21], in [22], in test [23], in test [24] and in test [25] was 1000 nM each time. Moreover, the IC50 in test [26], in test [27] and in [28] was 1000 nM each time.

Consider `COc1cccc(/C=C2\CNC/C(=C\c3cccc(OC)c3OC)C2=O)c1OC`, for which the IC50 in test [2], in test [3], in test [4], in [5], in [6] and in [7] was 390 nM throughout.

Take `COCOc1c(OC)cc(/C=C/C(=O)/C=C/c2cc(OC)c(OCOC)c(OC)c2)cc1OC`: the 50% inhibitory concentration (IC50) in [1] came to 250 nM.

Take `CCOC(C)Oc1cccc(/C=C/C(=O)/C=C/c2cc(OC)c(OC)c(OC)c2)c1` (stereo not drawn): the IC50 in test [14], in test [15], in [16], in [17], in test [18] and in test [19] was 1000 nM in each case. The IC50 in test [20], in test [21], in test [22], in [23], in test [24] and in test [25] was 1000 nM in each case. Also, the IC50 in test [26], in test [27] and in test [28] was 1000 nM each time.

`COc1ccc(/C=C2\CCC/C(=C\c3ccc(OC)c(OC)c3)C2=O)cc1OC`: the IC50 in test [14], in test [15], in test [16], in test [17], in test [18] and in test [19] was 10000 nM each time. Moreover, the IC50 in test [20], in [21], in test [22], in [23], in test [24] and in test [25] was 10000 nM throughout. The IC50 in [26], in [27] and in test [28] was 10000 nM throughout.

For the compound `O=C1/C(=C/c2cccc(/N=C/c3ccccc3O)c2)CCC/C1=C\c1cccc(/N=C/c2ccccc2O)c1`, the IC50 in test [10], in test [11], in [12] and in [13] was < 5000 nM each time.

(Values after ChEMBL document CHEMBL5244235, “Diarylpentanoids with antitumor activity: A critical review of structure-activity relationship studies” (Eur J Med Chem, 2020).)
